From patent US20020162794A1, “Anaerobic digestion” (priority 2001, published 2002)
Where “and” joins values, the source holds several entries; their conditions need not be identical. Equal values may be shown once.

Key:
[1] = system: mixed culture from municipal sludge digester; test: Total Solids (TS) of batch anaerobic digester reactors
Experimental: A 30 ml samples is withdrawn from each of the 12 reactors into refractory pans after the weight of empty pans was recorded (say W1). […] The weight of pans with dried sample is then noted (say W2). The difference W2˜W1, gives the weight of solids in 30 ml sample. From this the total Solids concentration in units of g/liter is calculated. This TS parameter is indicative of concentration of total solids in the sample including organic substrate, inert organics and inorganics.
(§1) Municipal sludge from the city of Lubbock, Wastewater Treatment Plant was digested in 12 batch digesters. Using twelve batch reactors allowed the collection of control reactors data (i.e., no formate in the reactors) in triplicate, titration studies of increasing formate concentration, and duplicates/triplicates of varying formate concentration. Experiments were conducted in the laboratories of Texas Tech University.
(§2) The reactors were setup on Mar. […] The substrate taken was 2 parts of 50 g/liter sucrose solution mixed with 1 part of digested municipal sludge which acts as the seed material for incorporation of microbes into the reactors. The experiments were started with the following protocol. [drawing 1]

[2] = system: mixed culture from municipal sludge digester; test: Total Volatile Solids (TVS) of batch anaerobic digester reactors
Experimental: After the above TS measurements were completed, the pans together with dried samples are put into furnace at 550° C. for about two hours. The weight of the pans are then noted (say W3). The difference […] then gives the weight of volatile solids in the 30 ml sample. Again this Total Volatile Solids concentration is manipulated to units of g/liter. TVS determination represents the concentration of the organic substrate in the test sample.
as §1, §2

[3] = system: mixed culture from municipal sludge digester; test: Volume and composition of gas generated in batch anaerobic digesters
Source text: Volumetric gas production measurements
The gases generated by the biological activity within the reactors were collected in the overhanging plastic bags. The bags are connected to a tank containing colored water via a gas port used for sampling purpose to determine the gas composition. To measure the volume of gas in the bag, the water in the tank is drained out maintaining a suction pressure head difference of 2 cm between the atmospheric air and the gas inside the tank. The water is drained until there is a jump in the pressure head differences, which is actually noted by observing a jump in the difference in levels of manometer limbs. […] The difference between final water level and initial water level is measured by the scale on the side of the tank and is indicative of the volume of gas collected in each of the bags. The gas is returned to the bags by pumping the drained water back into the water tank, whereby the collected gas inside the water tank is pushed back into the overhanging plastic bags.
Gas composition measurements
To analyze the composition of the gases collected, a small sample of gas was withdrawn through a gas port and then sent out for analysis by a commercial laboratory utilizing gas chromatography.
as §1, §2

[4] = system: anaerobic mixed culture (domestic sewage); test: Anaerobic digestion of domestic sewage, overall effect of formate salt concentration
Experimental: The various formate salts include, but are not limited to sodium formate (NaHCOO), potassium formate (KHCOO), ammonium formate (NH4COO), calcium formate (Ca(HCOO)2), and others either singly or in combination. These formate salts have been tested for concentrations ranging from 10 mg/L (˜10 ppm) to as high as […] (100,000 mg/L) based on the organic matter available for digestion.
Two tests were run in which sodium formate in concentrations ranging from a few parts per million (ppm) up to ten percent (10%) on a mass basis were added to samples taken from a publicly owned anaerobic digester. The samples were first cultured in laboratory sized batch reactors. The twelve batch reactors were then sampled, and studied for periods of up to fifty-five days. The process variables that were monitored included COD (Chemical Oxygen Demand), TS (Total Solids), TVS (Total Volatile Solids) and the pH of the culture. Time and the initial sodium formate concentration level were the independent variables. Finally measurements were also made of the bacterial counts at the beginning and at the end of the fifty five day period.
as §1

cattle = details: added to organic roughage fed to cattle; cited from earlier work
[5] = 100000 ppm, average of reactors

In the case of O=C[O-].[Na+] [sodium formate], the “Total Solids” value ([1]; 1000 ppm, day 2) is reported as 37.6 g/L and 35.9 g/L, the “Total Solids” value ([1]; 1000 ppm, day 7) is reported as 33.8 g/L and 32.5 g/L and 32.2 g/L and the “Total Solids” value ([1]; 1000 ppm, day 16) is reported as 20.3 g/L and 15.8 g/L and 21.4 g/L. The “Total Solids” value ([1]; 1000 ppm, day 55) was 15.6 g/L and 13.2 g/L and 17.3 g/L, the “Total Solids” value ([1]; 1000 ppm, day 243 (so in the source)) was 16.6 g/L and 13.0 g/L and 17.8 g/L and the “Total Solids” value ([1]; 1000 ppm, formate addition at t = 0) was 42.3 g/L and 41.8 g/L and 40.8 g/L. The “Total Solids” value ([1]; 5000 ppm, day 2) was 35.5 g/L, the “Total Solids” value ([1]; 5000 ppm, day 7) was 34.6 g/L and the “Total Solids” value ([1]; 5000 ppm, day 16) was 20.7 g/L. The “Total Solids” value ([1]; 5000 ppm, day 55) was 23.2 g/L, the “Total Solids” value ([1]; 5000 ppm, day 243 (so in the source)) was 22.0 g/L and the “Total Solids” value ([1]; 5000 ppm, formate addition at t = 0) was 47.5 g/L. The “Total Solids” value ([1]; 10000 ppm, day 2) was 44.5 g/L and 52.6 g/L and 48.3 g/L, the “Total Solids” value ([1]; 10000 ppm, day 7) was 36.3 g/L and 45.3 g/L and 43.5 g/L and the “Total Solids” value ([1]; 10000 ppm, day 16) was 34.6 g/L and 41.2 g/L and 31.2 g/L. For the same compound, the “Total Solids” value ([1]; 10000 ppm, day 55) was 36.3 g/L and 36.8 g/L and 33.3 g/L, the “Total Solids” value ([1]; 10000 ppm, day 243 (so in the source)) was 33.4 g/L and 39.6 g/L and 30.7 g/L and the “Total Solids” value ([1]; 10000 ppm, formate addition at t = 0) was 55.1 g/L and 54.9 g/L and 53.4 g/L. The “Total Solids” value ([1]; 100000 ppm, day 2) was 254 g/L and 289.6 g/L, the “Total Solids” value ([1]; 100000 ppm, day 7) was 91.5 g/L and 147.4 g/L and the “Total Solids” value ([1]; 100000 ppm, day 16) was 129 g/L and 151.1 g/L. The “Total Solids” value ([1]; 100000 ppm, day 55) was 128 g/L and 160 g/L, the “Total Solids” value ([1]; 100000 ppm, day 243 (so in the source)) was 125 g/L and 147.8 g/L and the “Total Solids” value ([1]; 100000 ppm, formate addition at t = 0) was 180.4 g/L and 188 g/L. For the same compound, the “Total Volatile Solids” value ([2]; 1000 ppm, day 2) was 33.4 g/L and 32.6 g/L and 26.7 g/L, the “Total Volatile Solids” value ([2]; 1000 ppm, day 7) was 30.6 g/L and 29.9 g/L and 29.3 g/L and the “Total Volatile Solids” value ([2]; 1000 ppm, day 16) was 16.4 g/L and 13.1 g/L and 18.1 g/L. The “Total Volatile Solids” value ([2]; 1000 ppm, day 24) was 14.4 g/L and 10.3 g/L and 15.2 g/L, the “Total Volatile Solids” value ([2]; 1000 ppm, day 55) was 12.9 g/L and 10.7 g/L and 14.2 g/L and the “Total Volatile Solids” value ([2]; 1000 ppm, with formate addition at t = 0) was 39.6 g/L and 38.8 g/L and 37.3 g/L. The “Total Volatile Solids” value ([2]; 5000 ppm, day 2) was 23.7 g/L, the “Total Volatile Solids” value ([2]; 5000 ppm, day 7) was 20.3 g/L and the “Total Volatile Solids” value ([2]; 5000 ppm, day 16) was 12.6 g/L. The “Total Volatile Solids” value ([2]; 5000 ppm, day 24) was 11.7 g/L, the “Total Volatile Solids” value ([2]; 5000 ppm, day 55) was 14.7 g/L and the “Total Volatile Solids” value ([2]; 5000 ppm, with formate addition at t = 0) was 41.8 g/L. For the same compound, the “Total Volatile Solids” value ([2]; 10000 ppm, day 2) was 25.5 g/L and 30.2 g/L and 29.8 g/L, the “Total Volatile Solids” value ([2]; 10000 ppm, day 7) was 19.2 g/L and 24 g/L and 24.1 g/L and the “Total Volatile Solids” value ([2]; 10000 ppm, day 16) was 17.1 g/L and 21.0 g/L and 15.0 g/L. The “Total Volatile Solids” value ([2]; 10000 ppm, day 24) was 16.4 g/L and 18.9 g/L and 15.2 g/L, the “Total Volatile Solids” value ([2]; 10000 ppm, day 55) was 19.8 g/L and 20.1 g/L and 18.5 g/L and the “Total Volatile Solids” value ([2]; 10000 ppm, with formate addition at t = 0) was 38.8 g/L and 46.9 g/L and 46.4 g/L. The “Total Volatile Solids” value ([2]; 100000 ppm, day 2) was 68.5 g/L and 80.8 g/L, the “Total Volatile Solids” value ([2]; 100000 ppm, day 7) was 45.8 g/L and 52.7 g/L and the “Total Volatile Solids” value ([2]; 100000 ppm, day 16) was 44.7 g/L and 54.10 g/L. For the same compound, the “Total Volatile Solids” value ([2]; 100000 ppm, day 24) was 41.4 g/L and 51.6 g/L, the “Total Volatile Solids” value ([2]; 100000 ppm, day 55) was 45.5 g/L and 65.8 g/L and the “Total Volatile Solids” value ([2]; 100000 ppm, with formate addition at t = 0) was 126.6 g/L and 134.9 g/L. The “Average Composition CH4” value ([3]; 1000 ppm, average of reactors) was 0%, the “Average Composition CO2” value ([3]; 1000 ppm, average of reactors) was 18.3% and the “Average Composition N2” value ([3]; 1000 ppm, average of reactors) was 71.7%. The “Composition CH4” value ([3]; 1000 ppm, single reactors) was 0%, the “Composition CO2” value ([3]; 1000 ppm, single reactors) was 40% and 20% and 25% and the “Composition N2” value ([3]; 1000 ppm, single reactors) was 60% and 80% and 75%. For the same compound, the “Average Composition CH4” value ([3]; 5000 ppm) was 0.1%, the “Average Composition CO2” value ([3]; 5000 ppm) was 41% and the “Average Composition N2” value ([3]; 5000 ppm) was 59%. For the same compound, the “Composition CH4” value ([3]; 5000 ppm, reactor 3) was 0.1%, the “Composition CO2” value ([3]; 5000 ppm, reactor 3) was 41% and the “Composition N2” value ([3]; 5000 ppm, reactor 3) was 59%. For the same compound, the “Volume of CO2 generated” value ([3]; 5000 ppm, reactor 3) was 725 mL, the Volume of gas ([3]; 5000 ppm, reactor 3) was 1750 mL and the “Average Composition CH4” value ([3]; 10000 ppm, average of reactors) was 0%. For the same compound, the “Average Composition CO2” value ([3]; 10000 ppm, average of reactors) was 41.7%, the “Average Composition N2” value ([3]; 10000 ppm, average of reactors) was 58.3% and the “Composition CH4” value ([3]; 10000 ppm, single reactors) was 0%. For the same compound, the “Composition CO2” value ([3]; 10000 ppm, single reactors) was 57% and 43% and 40%, the “Composition N2” value ([3]; 10000 ppm, single reactors) was 43% and 57% and 60% and the “Average Composition CH4” value [3, 5] was 0%. The “Average Composition CO2” value [3, 5] was 59%, the “Average Composition N2” value [3, 5] was 41.5% and the “Composition CH4” value ([3]; 100000 ppm, single reactors) was 0%. The “Composition CO2” value ([3]; 100000 ppm, single reactors) was 70% and 47%, the “Composition N2” value ([3]; 100000 ppm, single reactors) was 30% and 53% and the “Volume of CO2 generated” value ([3]; 100000 ppm, single reactors) was 910 mL and 1663 mL. The “effect on anaerobic digestion over the tested concentration range” value ([4]; 10 mg/L to 100,000 mg/L based on the organic matter available for digestion) was “beneficial at all concentration levels”, the “concentration range of greatest effects” value ([4]; 10 mg/L to 100,000 mg/L tested) was “greatest effects being observed over the 100 ppm to the 2,000-mg/L range” and the “cellular activity in the mixed culture” value ([4]; above the 5000 ppm concentration level) was “slightly, but still progressively more inhibited”. For the same compound, the “effect of accidental addition of too much (titration data)” value ([4]; overdose) was “would not shut down the digester culture”, the “effect on anaerobic digestion process” value ([4]; up to 5000 ppm, batch reactors, up to 55 days) was “facilitate the anaerobic digestion process at all concentration levels up to 5000 ppm” and the “increase of digestibility of the feed” value (cattle) was 4-27%.
